{"source": "paper PMC10281575", "about": "“PfCRT mutations conferring piperaquine resistance in falciparum malaria shape the kinetics of quinoline drug binding and transport” (PLOS Pathogens, 2023)", "target": "T1, PfCRT^Dd2 (Plasmodium falciparum, UniProt Q8IBZ9, A220S/I356T/K76T/M74I/N326S/N75E/Q271E/R371I)", "T1 sequence (Q8IBZ9 1-424 M74I/N75E/K76T/A220S/Q271E/N326S/I356T/R371I)": "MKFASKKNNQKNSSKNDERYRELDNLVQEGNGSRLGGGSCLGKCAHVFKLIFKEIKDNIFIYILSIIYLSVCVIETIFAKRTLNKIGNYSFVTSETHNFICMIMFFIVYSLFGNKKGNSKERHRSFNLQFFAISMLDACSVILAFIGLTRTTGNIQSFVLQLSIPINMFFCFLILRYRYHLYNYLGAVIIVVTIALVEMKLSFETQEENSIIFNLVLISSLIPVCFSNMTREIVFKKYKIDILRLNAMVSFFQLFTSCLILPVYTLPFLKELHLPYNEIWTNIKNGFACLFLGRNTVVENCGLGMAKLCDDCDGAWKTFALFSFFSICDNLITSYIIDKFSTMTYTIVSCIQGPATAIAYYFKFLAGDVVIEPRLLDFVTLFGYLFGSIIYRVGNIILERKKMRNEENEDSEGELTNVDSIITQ", "test": "Competition kinetics of drug transport (radiolabeled substrate plus cold inhibitor), PfCRT^Dd2-expressing oocytes", "format": "cell-based", "set-up": "expressed in transfected cells; host or cells: Xenopus laevis oocytes injected with in vitro transcribed RNA (pSP64T)", "conditions": "single replicates", "description": "The experimental procedure and the data analysis were as described above.\nThe difference between the two models lies in the value of α, a parameter describing how much the affinity for the substrate changes when the inhibitor is already bound, and vice versa. […] The resulting Vmax,app values and the Vmax,app/KM,app ratios were plotted as a function of the inhibitor concentration (Fig 5A).\nDrug transport assays were performed as previously described. Briefly, measurements of radiolabeled drug uptake were made over 1 h, unless otherwise specified. […] Where specified, one or more unlabeled drugs were also present at the indicated concentrations. […] The uptake assays were terminated by removing the oocytes from the reaction medium and washing them three times with 2 mL of ice-cold ND96 buffer. Each oocyte was transferred to a separate scintillation vial and lysed by the addition of 200 μL of a 5% SDS solution. The radioactivity in the sample was measured using a liquid scintillation analyser Tri-Carb 4910 TR (PerkinElmer). Water-injected oocytes were analyzed in parallel as a negative control. The buffer from each condition was measured in duplicate in parallel to each experiment to transform counts per minute into pmol of drug. Drug uptake attributable to PfCRT was determined by subtracting the background uptake from water-injected oocytes from that of PfCRT-expressing oocytes. In all cases, at least three independent experiments were performed on oocytes from different frogs, and for each condition in an experiment, measurements were made from 10 oocytes per treatment.\nThe following equations were adopted from Segel (1993), and the reader is referred to that text for the assumptions made in the author’s approach in the derivation of each equation [31]. The concentration of substrate is denoted as [S1] and the concentration of the inhibiting substrate is denoted as [S2]. KS1 and KS2 are the dissociation constants for the respective substrate-protein complexes.\nAnalyses of the kinetic data were performed using SigmaPlot version 13.0 and Python. The drug competition models were globally fit to the kinetic data using the least-squares method and ranked according to their corrected Akaike information criterion difference (ΔAICC) and their Akaike weight, using Python. The two top-ranked models were compared using an F-test.\nThis factor reflects how much the affinity of the transporter for one drug changes when the other drug is already bound in the protein cavity. In the former model, α > 0 and α ≠ 1. In the latter model, it could be thought of as if α = 1. Because of this, discriminating between the two models also means determining the value of α. In Mixed-type (Partial) inhibition, the apparent maximal velocity (Vmax,app) is given by Eq 22, Vmax,app=Vmax(1+β[S2]/αKS2)/(1+[S2]/αKS2) (Eq 22)\nVmax,app is the maximal rate of substrate transport at a certain inhibitor concentration. The half-maximal inhibitory concentration is given by the term in the denominator different from [S2], which in this case is αKS2. This means that by plotting Vmax,app as a function of [S2], the value of αKS2 can be derived after fitting the curve to Eq 23.\nThe half-maximal inhibitory concentration derived from this hyperbolic equation is equal to KS2. By plotting Vmax,app/KM,app as a function of [S2], one can derive KS2 after fitting the curve to Eq 25. The value of α can then be calculated dividing αKS2 by KS2.", "note": "“And” between values parts separate entries of the source, which are not always exact repeats. Identical values can stand only once.", "data": [{"smiles": "CCN(CC)CCCC(C)Nc1ccnc2cc(Cl)ccc12", "note": "(stereo not drawn) [CQ, chloroquine]", "values": [{"measurement": "PfCRTDd2-mediated CQ transport 10 µM CQ", "setting": "0 µM PPQ", "result": "0.87 pmol oocyte-1 h-1 and 1.33 pmol oocyte-1 h-1 and 1.00 pmol oocyte-1 h-1 and 0.95 pmol oocyte-1 h-1"}, {"measurement": "PfCRTDd2-mediated CQ transport 10 µM CQ", "setting": "50 µM PPQ", "result": "1.41 pmol oocyte-1 h-1 and 1.10 pmol oocyte-1 h-1 and 0.61 pmol oocyte-1 h-1"}, {"measurement": "PfCRTDd2-mediated CQ transport 10 µM CQ", "setting": "125 µM PPQ", "result": "0.68 pmol oocyte-1 h-1 and 1.41 pmol oocyte-1 h-1 and 1.40 pmol oocyte-1 h-1"}, {"measurement": "PfCRTDd2-mediated CQ transport 10 µM CQ", "setting": "200 µM PPQ", "result": "0.89 pmol oocyte-1 h-1 and 0.30 pmol oocyte-1 h-1 and 1.02 pmol oocyte-1 h-1"}, {"measurement": "PfCRTDd2-mediated CQ transport 10 µM CQ", "setting": "350 µM PPQ", "result": "1.16 pmol oocyte-1 h-1 and 0.24 pmol oocyte-1 h-1 and 0.95 pmol oocyte-1 h-1"}, {"measurement": "PfCRTDd2-mediated CQ transport 10 µM CQ", "setting": "500 µM PPQ", "result": "0.43 pmol oocyte-1 h-1 and 1.04 pmol oocyte-1 h-1 and 0.36 pmol oocyte-1 h-1"}, {"measurement": "PfCRTDd2-mediated CQ transport 50 µM CQ", "setting": "0 µM PPQ", "result": "3.90 pmol oocyte-1 h-1 and 4.91 pmol oocyte-1 h-1 and 4.76 pmol oocyte-1 h-1 and 7.49 pmol oocyte-1 h-1 and 10.46 pmol oocyte-1 h-1 and 5.04 pmol oocyte-1 h-1 and 3.98 pmol oocyte-1 h-1"}, {"measurement": "PfCRTDd2-mediated CQ transport 50 µM CQ", "setting": "50 µM PPQ", "result": "6.48 pmol oocyte-1 h-1 and 5.07 pmol oocyte-1 h-1 and 3.08 pmol oocyte-1 h-1 and 4.12 pmol oocyte-1 h-1"}, {"measurement": "PfCRTDd2-mediated CQ transport 50 µM CQ", "setting": "125 µM PPQ", "result": "4.96 pmol oocyte-1 h-1 and 2.54 pmol oocyte-1 h-1 and 3.07 pmol oocyte-1 h-1"}, {"measurement": "PfCRTDd2-mediated CQ transport 50 µM CQ", "setting": "200 µM PPQ", "result": "3.46 pmol oocyte-1 h-1 and 2.63 pmol oocyte-1 h-1 and 3.11 pmol oocyte-1 h-1"}, {"measurement": "PfCRTDd2-mediated CQ transport 50 µM CQ", "setting": "350 µM PPQ", "result": "2.38 pmol oocyte-1 h-1 and 2.66 pmol oocyte-1 h-1 and 3.48 pmol oocyte-1 h-1"}, {"measurement": "PfCRTDd2-mediated CQ transport 50 µM CQ", "setting": "500 µM PPQ", "result": "2.32 pmol oocyte-1 h-1 and 2.15 pmol oocyte-1 h-1 and 3.29 pmol oocyte-1 h-1"}, {"measurement": "PfCRTDd2-mediated CQ transport 100 µM CQ", "setting": "0 µM PPQ", "result": "8.35 pmol oocyte-1 h-1 and 7.99 pmol oocyte-1 h-1 and 8.53 pmol oocyte-1 h-1"}, {"measurement": "PfCRTDd2-mediated CQ transport 100 µM CQ", "setting": "50 µM PPQ", "result": "9.49 pmol oocyte-1 h-1 and 7.68 pmol oocyte-1 h-1 and 5.55 pmol oocyte-1 h-1"}, {"measurement": "PfCRTDd2-mediated CQ transport 100 µM CQ", "setting": "125 µM PPQ", "result": "5.95 pmol oocyte-1 h-1 and 8.32 pmol oocyte-1 h-1 and 6.55 pmol oocyte-1 h-1"}, {"measurement": "PfCRTDd2-mediated CQ transport 100 µM CQ", "setting": "200 µM PPQ", "result": "5.59 pmol oocyte-1 h-1 and 6.01 pmol oocyte-1 h-1 and 5.66 pmol oocyte-1 h-1"}, {"measurement": "PfCRTDd2-mediated CQ transport 100 µM CQ", "setting": "350 µM PPQ", "result": "5.36 pmol oocyte-1 h-1 and 3.63 pmol oocyte-1 h-1 and 6.93 pmol oocyte-1 h-1"}, {"measurement": "PfCRTDd2-mediated CQ transport 100 µM CQ", "setting": "500 µM PPQ", "result": "4.92 pmol oocyte-1 h-1 and 5.26 pmol oocyte-1 h-1 and 4.17 pmol oocyte-1 h-1"}, {"measurement": "PfCRTDd2-mediated CQ transport 200 µM CQ", "setting": "0 µM PPQ", "result": "17.86 pmol oocyte-1 h-1 and 12.77 pmol oocyte-1 h-1 and 15.13 pmol oocyte-1 h-1"}, {"measurement": "PfCRTDd2-mediated CQ transport 200 µM CQ", "setting": "50 µM PPQ", "result": "13.29 pmol oocyte-1 h-1 and 13.73 pmol oocyte-1 h-1 and 11.63 pmol oocyte-1 h-1"}, {"measurement": "PfCRTDd2-mediated CQ transport 200 µM CQ", "setting": "125 µM PPQ", "result": "10.25 pmol oocyte-1 h-1 and 14.35 pmol oocyte-1 h-1 and 10.52 pmol oocyte-1 h-1"}, {"measurement": "PfCRTDd2-mediated CQ transport 200 µM CQ", "setting": "200 µM PPQ", "result": "10.68 pmol oocyte-1 h-1 and 10.09 pmol oocyte-1 h-1 and 9.74 pmol oocyte-1 h-1"}, {"measurement": "PfCRTDd2-mediated CQ transport 200 µM CQ", "setting": "350 µM PPQ", "result": "11.39 pmol oocyte-1 h-1 and 6.27 pmol oocyte-1 h-1 and 10.49 pmol oocyte-1 h-1"}, {"measurement": "PfCRTDd2-mediated CQ transport 200 µM CQ", "setting": "500 µM PPQ", "result": "7.85 pmol oocyte-1 h-1 and 9.03 pmol oocyte-1 h-1 and 9.31 pmol oocyte-1 h-1"}, {"measurement": "PfCRTDd2-mediated CQ transport 300 µM CQ", "setting": "0 µM PPQ", "result": "20.89 pmol oocyte-1 h-1 and 20.25 pmol oocyte-1 h-1 and 8.92 pmol oocyte-1 h-1 and 15.94 pmol oocyte-1 h-1 and 19.02 pmol oocyte-1 h-1"}, {"measurement": "PfCRTDd2-mediated CQ transport 300 µM CQ", "setting": "50 µM PPQ", "result": "15.04 pmol oocyte-1 h-1 and 14.02 pmol oocyte-1 h-1 and 15.34 pmol oocyte-1 h-1"}, {"measurement": "PfCRTDd2-mediated CQ transport 300 µM CQ", "setting": "125 µM PPQ", "result": "15.92 pmol oocyte-1 h-1 and 14.01 pmol oocyte-1 h-1 and 11.66 pmol oocyte-1 h-1"}, {"measurement": "PfCRTDd2-mediated CQ transport 300 µM CQ", "setting": "200 µM PPQ", "result": "11.11 pmol oocyte-1 h-1 and 12.97 pmol oocyte-1 h-1 and 12.36 pmol oocyte-1 h-1"}, {"measurement": "PfCRTDd2-mediated CQ transport 300 µM CQ", "setting": "350 µM PPQ", "result": "11.84 pmol oocyte-1 h-1 and 11.95 pmol oocyte-1 h-1 and 8.89 pmol oocyte-1 h-1"}, {"measurement": "PfCRTDd2-mediated CQ transport 300 µM CQ", "setting": "500 µM PPQ", "result": "11.31 pmol oocyte-1 h-1 and 9.89 pmol oocyte-1 h-1 and 9.29 pmol oocyte-1 h-1"}, {"measurement": "PfCRTDd2-mediated CQ transport 400 µM CQ", "setting": "0 µM PPQ", "result": "20.79 pmol oocyte-1 h-1 and 22.58 pmol oocyte-1 h-1 and 19.58 pmol oocyte-1 h-1 and 16.43 pmol oocyte-1 h-1"}, {"measurement": "PfCRTDd2-mediated CQ transport 400 µM CQ", "setting": "50 µM PPQ", "result": "18.68 pmol oocyte-1 h-1 and 19.12 pmol oocyte-1 h-1 and 16.44 pmol oocyte-1 h-1"}, {"measurement": "PfCRTDd2-mediated CQ transport 400 µM CQ", "setting": "125 µM PPQ", "result": "13.83 pmol oocyte-1 h-1 and 18.03 pmol oocyte-1 h-1 and 15.59 pmol oocyte-1 h-1"}, {"measurement": "PfCRTDd2-mediated CQ transport 400 µM CQ", "setting": "200 µM PPQ", "result": "14.22 pmol oocyte-1 h-1 and 13.47 pmol oocyte-1 h-1 and 13.35 pmol oocyte-1 h-1"}, {"measurement": "PfCRTDd2-mediated CQ transport 400 µM CQ", "setting": "350 µM PPQ", "result": "14.38 pmol oocyte-1 h-1 and 9.22 pmol oocyte-1 h-1"}, {"measurement": "PfCRTDd2-mediated CQ transport 400 µM CQ", "setting": "500 µM PPQ", "result": "12.77 pmol oocyte-1 h-1 and 10.16 pmol oocyte-1 h-1 and 8.34 pmol oocyte-1 h-1"}]}]}
